From patent US20140314857A1, “FORMULATIONS FOR ENHANCED BIOAVAILABILITY OF ZANAMIVIR” (priority 2012, published 2014)
“And” between values parts separate entries of the source, which are not always exact repeats. Identical values can stand only once.

Assay: Intravenous and intraduodenal (bolus) bioavailability of zanamivir from Capmul MCM L8 25, 50, 75 µL (Example 7)
Details: for Co: extrapolated to t = 0
Text: Male Sprague-Dawley rats (Hilltop Labs), 3 animals per treatment group, 250-350 grams in weight, were fitted with a jugular vein cannula (JVC). Animals intended for intraduodenal dosing were also fitted with one or more intraduodenal cannula (IDC) and those intended for intravenous dosing were fitted with a second JVC. Food was withheld from the animals for a minimum of twelve hours prior to test article administration and was returned approximately four hours post-dose. Water was supplied ad libitum.
Intraduodenal doses composed of 1.5 mg of zanamivir and varying amounts of an enhancer (glycerol or Capmul MCM L8) were injected directly into the duodenum via the IDC. Intravenous dosing was conducted by the injection of 1.5 mg of zanamivir in 200 μL of PBS through a JVC. For some experiments, the absorption enhancer was administered intraduodenally 2 hr prior to administering 1.5 mg of zanamivir in PBS through a second IDC. Each intraduodenal dose was followed with the introduction of a small air bubble (˜10 μL) in the cannula followed by a flush of 125 μL of PBS to ensure the dose was given in full. The volume of PBS used for cannula flush was consistent across the treatment groups. The cannula was tied to prevent the PBS remaining in the cannula from entering the duodenum.
Blood samples collected via the JVC, approximately 400 μL each, were obtained at 2 min, 5 min, 15 min, 30 min, 60 min, 90 min, and 120 min, with sodium heparin used as an anti-coagulant. Each sample was placed into a chilled tube containing the anticoagulant and kept on ice until centrifugation at 4° C., 3,000×g, for 5 min. The plasma supernatants were stored at −70° C. until LC-MS analysis.
Dosing solution samples were assayed by LC-MS/MS using electrospray ionization. The chromatographic system consisted of Perkin Elmer series 200 micropumps and autosampler equipped with a Waters Atlantic® HILIC Silica 3 μM, 2.1×50 mm column. The mass spectrometer was a PE Sciex API 4000 with electrospray interface in multiple reaction monitoring mode. […] Stock solutions (1 mg/mL zanamivir) were prepared in water. Standards (eight concentrations) were prepared in the appropriate matched matrix (HBSSg or Sprague-Dawley rat plasma containing sodium heparin) and diluted 50-fold with methanol. Experimental samples were treated identically.
Standards and samples were prepared in Sprague Dawley rat plasma containing sodium heparin as an anticoagulant. An eight-point calibration curve was prepared at concentrations of 1000, 750, 500, 250, 100, 50, 25, and 10 ng/mL by serial dilution. Standard samples were treated identically to the study samples.
Plasma samples were extracted by protein precipitation in methanol.
In this example, the bioavailability of Zanamivir was evaluated after intraduodenal doses in male Sprague-Dawley rats. The test compound was dosed at 1.5 mg/animal through intravenous and intraduodenal routes from normal saline and Capmul MCM L8 formulations, respectively. Plasma levels were determined by LC-MS/MS analysis. Pharmacokinetic parameters were estimated by a non-compartmental model using WinNonlin v5.2.1 software.
Each ID dose in groups 2-4 will be followed with a small air bubble ([…]) and a flush of […] of PBS to insure the dose is given in full. The volume of PBS used for cannulae flush will be maintained consistent across the animals and the treatment groups. The cannula will then be tied to help prevent the PBS remaining in the cannula from entering the duodenum.

[1] = IV 1.5 mg/animal, Normal Saline, Ex.7, individual rats

CC(=O)NC1C(NC(=N)N)C=C(C(=O)O)OC1C(O)C(O)CO (stereo not drawn) [Zanamivir, 5-acetamido-4-guanidino-6-(1,2,3-trihydroxypropyl)-5,6-dihydro-4H-pyran-2-carboxylic acid]
Plasma concentration (ID bolus 1.5 mg/animal, 25 µL Capmul MCM L8, 0.25 hr, individual rats): 1500 ng/mL and 1380 ng/mL and 655 ng/mL
Plasma concentration (ID bolus 1.5 mg/animal, 25 µL Capmul MCM L8, 0.5 hr, individual rats): 950 ng/mL and 647 ng/mL
Plasma concentration (ID bolus 1.5 mg/animal, 25 µL Capmul MCM L8, 0.83 hr, individual rats): 1960 ng/mL and 2090 ng/mL and 913 ng/mL
Plasma concentration (ID bolus 1.5 mg/animal, 25 µL Capmul MCM L8, 1.0 hr, individual rats): 378 ng/mL and 259 ng/mL
Plasma concentration (ID bolus 1.5 mg/animal, 25 µL Capmul MCM L8, 1.5 hr, individual rats): 143 ng/mL and 119 ng/mL
Plasma concentration (ID bolus 1.5 mg/animal, 25 µL Capmul MCM L8, 2.0 hr, individual rats): 78.2 ng/mL and 66.8 ng/mL
t1/2 (ID bolus 1.5 mg/animal, 25 µL Capmul MCM L8, individual rats): 26.4 min and 30.7 min
Plasma concentration (ID bolus 1.5 mg/animal, 50 µL Capmul MCM L8, Ex.7, 0.25 hr, individual rats): 1400 ng/mL and 1270 ng/mL
Plasma concentration (ID bolus 1.5 mg/animal, 50 µL Capmul MCM L8, Ex.7, 0.5 hr, individual rats): 985 ng/mL and 774 ng/mL
Plasma concentration (ID bolus 1.5 mg/animal, 50 µL Capmul MCM L8, Ex.7, 0.83 hr, individual rats): 2130 ng/mL and 1600 ng/mL
Plasma concentration (ID bolus 1.5 mg/animal, 50 µL Capmul MCM L8, Ex.7, 1.0 hr, individual rats): 708 ng/mL and 551 ng/mL
Plasma concentration (ID bolus 1.5 mg/animal, 50 µL Capmul MCM L8, Ex.7, 1.5 hr, individual rats): 299 ng/mL and 217 ng/mL
Plasma concentration (ID bolus 1.5 mg/animal, 50 µL Capmul MCM L8, Ex.7, 2.0 hr, individual rats): 158 ng/mL and 99.5 ng/mL
t1/2 (ID bolus 1.5 mg/animal, 50 µL Capmul MCM L8, Ex.7, individual rats): 27.7 min and 24.3 min
Plasma concentration (IV 1.5 mg/animal, Normal Saline, Ex.7, 0.033 hr, individual rats): 22900 ng/mL and 20400 ng/mL
Plasma concentration (IV 1.5 mg/animal, Normal Saline, Ex.7, 0.083 hr, individual rats): 12300 ng/mL and 13500 ng/mL
Plasma concentration (IV 1.5 mg/animal, Normal Saline, Ex.7, 0.25 hr, individual rats): 9620 ng/mL and 11600 ng/mL
Plasma concentration (IV 1.5 mg/animal, Normal Saline, Ex.7, 0.5 hr, individual rats): 5500 ng/mL and 6450 ng/mL
Plasma concentration (IV 1.5 mg/animal, Normal Saline, Ex.7, 1.0 hr, individual rats): 1520 ng/mL and 2190 ng/mL
Plasma concentration (IV 1.5 mg/animal, Normal Saline, Ex.7, 1.5 hr, individual rats): 661 ng/mL and 862 ng/mL
Plasma concentration (IV 1.5 mg/animal, Normal Saline, Ex.7, 2.0 hr, individual rats): 220 ng/mL and 432 ng/mL
Co [1]: 32061 ng/mL and 34657 ng/mL and 26863 ng/mL
Co (IV 1.5 mg/animal, Normal Saline, Ex.7, mean): 31194 ± 3968 ng/mL and 31194 ng/mL
CL [1]: 10.7 mL/min/kg and 9.52 mL/min/kg
T1/2 [1]: 21.5 min and 25.6 min
Vss [1]: 0.260 L/kg and 0.278 L/kg
half-life (male, Sprague-Dawley, rat, in vivo, 1.5 mg, average half-life, ID bolus 1.5 mg/animal, 75 µL Capmul MCM L8): 24.9 ± 3.78 min
bioavailability (male, Sprague-Dawley, rat, in vivo, 1.5 mg, overall percent bioavailability): 25%
half-life (male, Sprague-Dawley, rat, in vivo, 1.5 mg, t1/2, ID bolus 1.5 mg/animal, 25 µL Capmul MCM L8, individual rats): 24.5 min
half-life (male, Sprague-Dawley, rat, in vivo, 1.5 mg, t1/2, ID bolus 1.5 mg/animal, 25 µL Capmul MCM L8, mean): 27.2 ± 3.18 min
half-life (male, Sprague-Dawley, rat, in vivo, 1.5 mg, t1/2, ID bolus 1.5 mg/animal, 50 µL Capmul MCM L8, Ex.7, individual rats): 21.8 min
half-life (male, Sprague-Dawley, rat, in vivo, 1.5 mg, t1/2, ID bolus 1.5 mg/animal, 50 µL Capmul MCM L8, Ex.7, mean): 24.6 min
half-life (male, Sprague-Dawley, rat, in vivo, 1.5 mg, t1/2, intraduodenal bolus, 1.5 mg/animal, 75 μL Capmul MCM L8, mean of 3 rats): 24.9 min
half-life (male, Sprague-Dawley, rat, in vivo, 1.5 mg, t1/2, intraduodenal bolus, 1.5 mg/animal, 75 μL Capmul MCM L8, rat 963): 29.2 min
half-life (male, Sprague-Dawley, rat, in vivo, 1.5 mg, t1/2, intraduodenal bolus, 1.5 mg/animal, 75 μL Capmul MCM L8, rat 964): 21.9 min
half-life (male, Sprague-Dawley, rat, in vivo, 1.5 mg, t1/2, intraduodenal bolus, 1.5 mg/animal, 75 μL Capmul MCM L8, rat 965): 23.6 min
half-life (male, Sprague-Dawley, rat, in vivo, 1.5 mg, t1/2, summary, intraduodenal, 1.5 mg/animal, 25 μL Capmul MCM L8): 27.2 min
half-life (male, Sprague-Dawley, rat, in vivo, 1.5 mg, t1/2, summary, intraduodenal, 1.5 mg/animal, 50 μL Capmul MCM L8): 24.6 min
half-life (male, Sprague-Dawley, rat, in vivo, 1.5 mg, t1/2, summary, intraduodenal, 1.5 mg/animal, 75 μL Capmul MCM L8): 24.9 min
Tmax (male, Sprague-Dawley, rat, in vivo, 1.5 mg, tmax, intraduodenal bolus, 1.5 mg/animal, 75 μL Capmul MCM L8, rat 964): 15 min
concentration at 0.25 hr (male, Sprague-Dawley, rat, in vivo, 1.5 mg/animal, Plasma concentration, ID bolus 1.5 mg/animal, 25 µL Capmul MCM L8, 0.25 hr, mean): 1180 ng/mL
concentration at 0.5 hr (male, Sprague-Dawley, rat, in vivo, 1.5 mg/animal, Plasma concentration, ID bolus 1.5 mg/animal, 25 µL Capmul MCM L8, 0.5 hr, individual rats): 916 ng/mL
concentration at 0.5 hr (male, Sprague-Dawley, rat, in vivo, 1.5 mg/animal, Plasma concentration, ID bolus 1.5 mg/animal, 25 µL Capmul MCM L8, 0.5 hr, mean): 838 ng/mL
concentration at 0.83 hr (male, Sprague-Dawley, rat, in vivo, 1.5 mg/animal, Plasma concentration, ID bolus 1.5 mg/animal, 25 µL Capmul MCM L8, 0.83 hr, mean): 1650 ng/mL
concentration at 1 hr (male, Sprague-Dawley, rat, in vivo, 1.5 mg/animal, Plasma concentration, ID bolus 1.5 mg/animal, 25 µL Capmul MCM L8, 1.0 hr, individual rats): 387 ng/mL
concentration at 1 hr (male, Sprague-Dawley, rat, in vivo, 1.5 mg/animal, Plasma concentration, ID bolus 1.5 mg/animal, 25 µL Capmul MCM L8, 1.0 hr, mean): 341 ng/mL
concentration at 1.5 hr (male, Sprague-Dawley, rat, in vivo, 1.5 mg/animal, Plasma concentration, ID bolus 1.5 mg/animal, 25 µL Capmul MCM L8, 1.5 hr, individual rats): 145 ng/mL
concentration at 1.5 hr (male, Sprague-Dawley, rat, in vivo, 1.5 mg/animal, Plasma concentration, ID bolus 1.5 mg/animal, 25 µL Capmul MCM L8, 1.5 hr, mean): 136 ng/mL
concentration at 2 hr (male, Sprague-Dawley, rat, in vivo, 1.5 mg/animal, Plasma concentration, ID bolus 1.5 mg/animal, 25 µL Capmul MCM L8, 2.0 hr, individual rats): 70.7 ng/mL
concentration at 2 hr (male, Sprague-Dawley, rat, in vivo, 1.5 mg/animal, Plasma concentration, ID bolus 1.5 mg/animal, 25 µL Capmul MCM L8, 2.0 hr, mean): 71.9 ng/mL
concentration at 0.25 hr (male, Sprague-Dawley, rat, in vivo, 1.5 mg/animal, Plasma concentration, ID bolus 1.5 mg/animal, 50 µL Capmul MCM L8, Ex.7, 0.25 hr, individual rats): 2060 ng/mL
concentration at 0.25 hr (male, Sprague-Dawley, rat, in vivo, 1.5 mg/animal, Plasma concentration, ID bolus 1.5 mg/animal, 50 µL Capmul MCM L8, Ex.7, 0.25 hr, mean): 1580 ng/mL
concentration at 0.5 hr (male, Sprague-Dawley, rat, in vivo, 1.5 mg/animal, Plasma concentration, ID bolus 1.5 mg/animal, 50 µL Capmul MCM L8, Ex.7, 0.5 hr, individual rats): 1250 ng/mL
concentration at 0.5 hr (male, Sprague-Dawley, rat, in vivo, 1.5 mg/animal, Plasma concentration, ID bolus 1.5 mg/animal, 50 µL Capmul MCM L8, Ex.7, 0.5 hr, mean): 1000 ng/mL
